From article PMC9977398, “Next-generation membrane-active glycopeptide antibiotics that also inhibit bacterial cell division” (Chemical Science, 2023)

How the values were obtained:
[1] = test system: VRE 51575 (vancomycin-resistant E. faecalis, VanB phenotype, ATCC 51575); set-up: method as in PMID 32195571; settings: previously reported; cited from earlier work
[2] = test system: carbapenem-resistant A. baumannii; assay: Murine chronic burn-wound infection model; format: in vivo, mice; settings: 30 mg kg^−1 topically for 5 days; untreated 8 log CFU g^−1
Method: Fig. 6 (A) Propensity of vancomycin and VanQAmC10 to induce resistance in MRSA upon serial exposure to sub-MIC concentrations; (B) (i) experimental design for in vivo efficacy study in a murine thigh infection model, (ii) in vivo efficacy of VanQAmC10 and vancomycin against the multidrug-resistant methicillin-resistant S. aureus (MRSA) (n = 3/dose). Antibiotics were administered intraperitoneally twice at 12 h intervals at a dose of 12 mg kg^−1. (C) (i) Experimental design for in vivo efficacy study in murine burn wound infection model, (ii) in vivo efficacy of VanQAmC10 and colistin against the carbapenem-resistant A. baumannii (n = 5/dose, 1 mouse died in untreated control). VanQAmC10 and colistin were treated topically at 30 mg kg^−1 for 5 days (‘***’ indicates p < 0.0001, ‘**’ indicates p < 0.001, ‘*’ p < 0.05, p = 0.08 (n.s.) for VanQAmC10 with respect to vancomycin).
Further, the efficacy of VanQAmC10 (8) was tested in a chronic burn-wound infection model of A. baumannii.[40] Chronic burn wounds on the back of mice were infected with A. baumannii. […] Infected mice were treated with 30 mg kg^−1 of VanQAmC10 and colistin for five days consecutively. The bacterial load in the untreated group increased to 8 log CFU g^−1 six days post-infection. […] The use of colistin is however limited due to its toxicity and bacteria easily develop resistance to it. […]

[3] = test system: GFP-FtsZ expressing E. coli; assay: GFP-FtsZ localization and morphology; format: cell-based; settings: 15 μM
Method: The FtsZ protein assembles into a membrane-associated ring structure at the division septum. It recruits other proteins for the progression and completion of cell division.[34] The effect of VanQAmC10 on the localization of FtsZ and morphology in E. coli producing green fluorescent protein (GFP)-tagged FtsZ was studied through microscopy (Fig. 5B). The cells were treated with IPTG to overexpress gfp-ftsZ and then either treated with compounds or left untreated. Upon treatment with 15 μM of VanQAmC10, the cells appear to be filamentous with variable lengths of up to 4 μm, while cells in the control group were ∼2.5 μm long. Incubation with VanQAmC10 for a longer time (130 minutes) results in bulkier filamentous cells, with severely distorted shapes (Fig. S4 ^†). […] IPTG-treated cells formed minicells of ∼1.5 μm length, which is characteristic of cells overproducing FtsZ.[35] Known inhibitors of FtsZ alter the regular midcell distribution of Z-rings.[36] […]
resuspended in prewarmed BMM media. […] The fluorescence in the GFP and Texas red channels was then observed under the microscope. […]
About 6 μl of sample was immobilized on 1% agarose pad . DIC and fluorescence images were obtained at different time intervals using Nikon Eclipse Ti Microscope equipped with Nikon DS-U3 camera through Plan Apo 100×/1.40 oil objective. […]

[4] = test system: RAW 264.7 cells; set-up: method as in PMID 32195571; settings: cited from earlier work

CCCCCCCCCCNC(=O)C[N+](C)(C)CCCNC(=O)C1NC(=O)C2NC(=O)C(NC(=O)C3NC(=O)C(CC(N)=O)NC(=O)C(NC(=O)C(CC(C)C)NC)C(O)c4ccc(c(Cl)c4)Oc4cc3cc(c4OC3OC(CO)C(O)C(O)C3OC3CC(C)(N)C(O)C(C)O3)Oc3ccc(cc3Cl)C2O)c2ccc(O)c(c2)-c2c(O)cc(O)cc21 (centres unmarked) [VanQAmC10 (8)]
Minimum inhibitory concentration, VRE 51575 [1]: 4 µM
lower bacterial load as compared to the untreated mice [2]: 2.2 log CFU g^−1
localization and distribution of Z-rings [3]: remain unaltered
length of filamentous cells ([3]; 40 min, control cells ∼2.5 μm): up to 4 μm
concentration up to which non-toxic [4]: 40 µM
